Calls of active or inactive are those of the source. The calls are words filed in the database; no cut-off is given here.
How the values were obtained:
SW-620 = assay: Antiproliferative activity against human SW620 cells assessed as reduction in cell viability incubated for 72 hrs by MTT assay; format: functional, cell-based; settings: SW-620, 72 h
[1] = Selectivity index, ratio of IC50 for antiproliferative activity against human HEK293T cells to IC50 for antiplasmodial activity against erythrocytic stage of chloroquine-sensitive Plasmodium falciparum 3D7; format: toxicity, cell-based; settings: read-out: Ratio IC50
Plasmodium falciparum [2] = assay: Resistance index, ratio of IC50 for antiplasmodial activity against erythrocytic stage of chloroquine-resistant Plasmodium falciparum Dd2 to IC50 for antiplasmodial activity against erythrocytic stage of chloroquine-sensitive Plasmodium falciparum 3D7; format: functional
HCT-116 = assay: Antiproliferative activity against human HCT-116 cells assessed as reduction in cell viability incubated for 72 hrs by MTT assay; format: functional, cell-based; settings: HCT-116, 72 h
Plasmodium falciparum [3] = assay: Antiplasmodial activity against erythrocytic stage of chloroquine-sensitive Plasmodium falciparum 3D7 assessed as inhibition of parasite growth incubated for 3 days by HRP2-ELISA; format: functional, organism-based; settings: 3D7, 72 h
MCF7 = assay: Antiproliferative activity against human MCF7 cells assessed as reduction in cell viability incubated for 72 hrs by MTT assay; format: functional, cell-based; settings: MCF7, 72 h
HepG2 = assay: Antiproliferative activity against human HepG2 cells assessed as reduction in cell viability incubated for 72 hrs by MTT assay; format: functional, cell-based; settings: HepG2, 72 h
[4] = Selectivity index, ratio of IC50 for antiproliferative activity against human HEK293T cells to IC50 for antiproliferative activity against human MCF7 cells; format: toxicity, cell-based; settings: HEK293T cells versus MCF7 cells, read-out: Ratio IC50
[5] = Antiproliferative activity against human HEK293T cells assessed as reduction in cell viability incubated for 72 hrs by MTT assay; format: toxicity, cell-based, HEK-293T
Plasmodium falciparum [6] = assay: Antiplasmodial activity against erythrocytic stage of chloroquine-resistant Plasmodium falciparum Dd2 assessed as inhibition of parasite growth incubated for 3 days by HRP2-ELISA; format: functional, organism-based; settings: Dd2, 72 h
RNA [7] = assay: Binding affinity to double stranded RNA (unknown origin) assessed as thermal stabilization by thermal denaturation based UV-Visible absorption spectroscopic analysis; format: nucleic-acid assay
dsDNA [8] = assay: Binding affinity to double stranded DNA (unknown origin) assessed as increase in fluorescence intensity by fluorescence quenching analysis; format: nucleic-acid assay
Plasmodium berghei [9] = assay: Antiplasmodial activity against hepatic stage of Plasmodium berghei sporozoites infected in human Huh-7 cells assessed as reduction in parasite growth at 1 uM incubated for 1 hr by bioluminescence assay; format: functional, organism-based
RNA [10] = assay: Binding affinity to double stranded RNA (unknown origin) assessed as increase in fluorescence intensity by fluorescence quenching analysis; format: nucleic-acid assay
Huh-7 [11] = assay: Cytotoxicity against human Huh-7 cells infected with Plasmodium berghei sporozoites at 10 uM by alamar blue staining based assay; format: functional, cell-based
Plasmodium berghei [12] = assay: Antiplasmodial activity against hepatic stage of Plasmodium berghei sporozoites infected in human Huh-7 cells assessed as reduction in parasite growth at 10 uM incubated for 1 hr by bioluminescence assay; format: functional, organism-based
Calf thymus DNA [13] = assay: Binding affinity to calf thymus DNA assessed as thermal stabilization by thermal denaturation based UV-Visible absorption spectroscopic analysis; settings: Bos taurus
Calf thymus DNA [14] = assay: Binding affinity to calf thymus DNA assessed as binding constant by UV-Visible absorption spectroscopic analysis; settings: Bos taurus
[15] = Drug uptake in human MCF7 cells at 10 uM incubated for 1 hr by fluorescence microscopic analysis; format: ADME, cell-based; settings: mcf7, 1 h
RNA [16] = assay: Binding affinity to double stranded RNA (unknown origin) by CD spectroscopic analysis; format: nucleic-acid assay
dsDNA [17] = assay: Binding affinity to double stranded DNA (unknown origin) by CD spectroscopic analysis; format: nucleic-acid assay
Huh-7 [18] = assay: Cytotoxicity against human Huh-7 cells infected with Plasmodium berghei sporozoites at 1 uM by alamar blue staining based assay; format: functional, cell-based
Plasmodium berghei [19] = assay: Antiplasmodial activity against hepatic stage of Plasmodium berghei sporozoites infected in human Huh-7 cells assessed as inhibition of parasite growth incubated for 1 hr by bioluminescence assay; format: functional, organism-based; settings: Huh-7, 1 h
Plasmodium falciparum [20] = assay: Gametocytocidal activity against gametocytes of Plasmodium falciparum NF54 assessed as inhibition of ATP production measured after 48 hrs by Bac-TiterGlo analysis; format: functional, organism-based; settings: NF54, 48 h
[21] = Drug uptake in human MCF7 cells at 10 uM incubated for 30 mins by fluorescence microscopic analysis; format: ADME, cell-based; settings: mcf7, 0.5 h
RNA [22] = assay: Binding affinity to double stranded RNA (unknown origin) assessed as binding constant by UV-Visible absorption spectroscopic analysis; format: nucleic-acid assay

SMILES | IC50 (SW-620) [µM] | selectivity ratio [1] | Ratio IC50 (Plasmodium falciparum [2]) | IC50 (HCT-116) [µM] | IC50 (Plasmodium falciparum [3]) [µM] | IC50 (MCF7) [µM] | IC50 (HepG2) [µM] | selectivity ratio [4] | IC50 at 72 h [5] [µM] | IC50 (Plasmodium falciparum [6]) [µM] | other results
COc1cc(NC(C)CCCNC(=O)NCCn2c3cc(OC)ccc3c3ccnc(C)c32)c2ncccc2c1 (stereo unspecified) | 9.93 | 18.1 | 1.57 | 10.6 | 0.702 | 9.15 | 12.3 | 1.39 | 12.7 | 1.1 | –
COc1cc(NC(C)CCCn2cc(COc3ccc4[nH]c5c(C)nccc5c4c3)nn2)c2ncccc2c1-c1c(OC)cc(NC(C)CCCn2cc(COc3ccc4[nH]c5c(C)nccc5c4c3)nn2)c2ncccc12 (stereo unspecified) | > 50 | > 3250 | 1.12 | > 50 | 0.0154 | > 100 | > 50 | – | > 50 | 0.0172 | Activity (RNA [7]): inactive; Activity (dsDNA [8]): Active; Activity (Plasmodium berghei [9]): Active; Activity (RNA [10]): Active; Activity (Huh-7 [11]): inactive; Activity (Plasmodium berghei [12]): Active; Activity (Calf thymus DNA [13]): inactive; log Ks (Calf thymus DNA [14]): 5.8; Drug uptake [15]: Not Active; Activity (RNA [16]): inactive; Activity (dsDNA [17]): inactive; Activity (Huh-7 [18]): inactive; IC50 (Plasmodium berghei [19]): 0.036 µM; IC50 (Plasmodium falciparum [20]): 0.0905 µM
COc1cc(NC(C)CCCn2cc(-c3nccc4c3[nH]c3ccccc34)nn2)c2ncccc2c1 (stereo unspecified) | 14.1 | 10 | 1.77 | 10.2 | 2.52 | > 50 | > 50 | < 0.51 | 25.3 | 4.48 | –
COc1cc(NC(C)CCCNC(=O)NCCOc2ccc3[nH]c4c(C)nccc4c3c2)c2ncccc2c1 (stereo unspecified) | 10.6 | 1.1 | 0.83 | 7.79 | 10.7 | 14.2 | 10.9 | 0.84 | 12 | 8.84 | –
CN(C)c1ccc2nc3ccc(N(C)C)cc3[s+]c2c1 [METHYLENE BLUE ANHYDROUS] | – | – | – | – | – | – | – | – | – | – | IC50 (Plasmodium falciparum [20]): 0.506 µM
COc1cc(NC(C)CCCn2cc(-c3cc4c([nH]c5ccccc54)c(C)n3)nn2)c2ncccc2c1 (stereo unspecified) | 15.8 | > 58.3 | 0.74 | 18.3 | 0.857 | 14.5 | > 50 | > 3.46 | > 50 | 0.632 | –
COc1cc(NC(C)CCCn2cc(COc3ccc4[nH]c5c(C)nccc5c4c3)nn2)c2ncccc2c1 (stereo unspecified) | 8.94 | – | 2.11 | 18.2 | 0.425 | 9.45 | 6.67 | 2.67 | 25.2 | 0.895 | Activity (RNA [7]): inactive; Activity (dsDNA [8]): inactive; Activity (RNA [10]): inactive; Activity (Calf thymus DNA [13]): inactive; Drug uptake [21]: Active; log Ks (Calf thymus DNA [14]): 3.4; log Ks (RNA [22]): 3.4; Activity (RNA [16]): inactive; Activity (dsDNA [17]): inactive
COc1cc(NC(C)CCCN)c2ncccc2c1 (stereo unspecified) [PRIMAQUINE] | 9.2 | 7.7 | 1.12 | 20.8 | 4.87 | 26.6 | – | 1.42 | 37.6 | 5.45 | –
